The text below walks through data of paper PMC7647111, “Antileishmanial compounds from Connarus suberosus: Metabolomics, isolation and mechanism of action” (PLoS ONE, 2020).

For data set [1], the system named is L. amazonensis amastigotes. Description: L. amazonensis amastigotes assay (RFP parasites in peritoneal macrophages). Format: cell-based, Leishmania amazonensis (IFLA/BR/1967/PH8). The conditions noted are these: for IC50: Leishmania amazonensis, Peritoneal macrophage, intracellular; for IC50 / activity against L. amazonensis amastigotes (in words): 72 h. The protocol:
Peritoneal macrophages obtained from BALB/c mice were transferred to a 24-well plate (6x10^5 cells/well) in RPMI 1640 medium supplemented with 10% inactivated FBS and 20 mM L-glutamine, pH 7.2. The plate was incubated at 37°C in 5% CO2 for 24 h. After this period, macrophages were infected with L. amazonensis (IFLA/BR/1967/PH8) transfected with RFP in the stationary growth phase using a ratio 1:10 (macrophages/parasites) at 33°C for 4 h. The non-phagocytosed parasites were subsequently removed by extensive PBS wash, and samples added at non-toxic concentrations, in accordance with the cytotoxicity tests (100 μg/mL to 1.56 μg/mL) to determine the IC50 for the intracellular parasite. After 72 h, the supernatant was removed from the wells and 200 μL of deionized water added to each well to lyse the cell membrane. After lysis, the resulting supernatants were transferred to a black 96-well plate. The plate was read in a fluorescence spectrophotometer (FLx800, BioTek Instruments, Inc., Winooski, VT, USA) with 540/600 nm of excitation/emission. Wells containing macrophages infected with L. amazonensis (RFP) […] only were used as negative controls.

The subject of data set [2] is L. infantum promastigotes. Description: Antiproliferation assay: L. infantum promastigotes (72 h), MTT. The class given is cell-based, Leishmania infantum (MCAN/BR/2008/1112). Conditions: 72 h exposure; for IC50: Leishmania infantum, 72 h. Here is the method: (§1) Leishmania amazonensis promastigotes (IFLA/BR/1967/PH8) for the 24 h exposure test were cultivated in RPMI 1640, supplemented with 20% v/v heat inactivated fetal bovine serum (FBS) and incubated at 26°C until near the end of the log growth phase. Leishmania amazonensis (IFLA/BR/1967/PH8) and L. infantum (MCAN/BR/2008/1112) promastigotes used in the 72 h exposure test were cultivated in Warren’s medium (containing brain heart infusion- BHI plus hemin and folic acid), supplemented with 10% FBS, 0.1% of the antibiotics: 100 UI/mL penicillin G and 0.1 mg/mL streptomycin. Leishmania amazonensis (IFLA/BR/1967/PH8) transfected with the red fluorescent protein (RFP) gene was cultured in M199 medium (containing 0.1 mmol/L adenine, 40 mmol/L hepes, 0.0005% hemin and 0.0002% biotin), supplemented with 10% FBS, and 0.1% of the antibiotic. Parasites were maintained at 25°C in a BOD incubator.
(§2) Extracts and isolated compounds were tested against L. amazonensis promastigotes (IFLA/BR/1967/PH8 strain - 2x10^5 cells/well) and L. infantum promastigotes (MCAN/BR/2008/1112 strain - 3x10^5 cells/well). The samples were solubilized in DMSO (<1%), serially diluted (100 μg/mL to 1.56 μg/mL) and tested in a 96-well plate to obtain a dose-response curve. Miltefosine and DMSO were used as positive and negative controls, respectively. After 72 h, 10 μL of 3-(4,5-dimethylthiazol-2-yl)-2,5-diphenyl tetrazolium bromide (5 mg/mL—MTT, Sigma-Aldrich) solution was added to each well and the plate returned to the incubator for an additional 4 h. To halt the reaction, 100 μL acidified isopropanol was added to each well. Plates were read at 570 nm in a microplate reader (Multiskan MS, LabSystems Oy, Helsinki, Finland).

Data set [3] in a line: Cytotoxicity assay (MTT). Format: cell-based, BALB/c mice. The conditions noted are these: female, BALB/c, mouse, 72 h exposure. Here is the method: Female BALB/c mice pre-inoculated with 3% thioglycollate medium were used to obtain macrophages from the peritoneal cavity. Peritoneal exudate was collected 72 h post-inoculation using cold Hank´s Balanced Salt Solution and the assay performed as previously reported. Briefly, peritoneal macrophages in RPMI 1640 medium were transferred to a 96-well plate (2x10^5 cells/well) and incubated at 37°C in 5% CO2 for 24 h to allow adhesion. Samples were serially diluted (100 μg/mL to 0.78 μg/mL), added to the plate with the cells and incubated under the same conditions for 72 h. MTT (10 μL/well) was subsequently added and the plates re-incubated for a further 2 h. To halt the reaction, 100 μL of acidified isopropanol was added to each well. The plate was then read at 570 nm in a microplate reader (Multiskan MS, LabSystems Oy, Helsinki, Finland).

Data set [4] relates to L. amazonensis promastigotes. Nature of the data set: Mitochondrial membrane potential (MitoTracker). Format: cell-based, Leishmania amazonensis. The conditions noted are these: 24 h; 2 at 33.8 μM, 3 at 11.4 μM; FCCP 5.0 μM for 10 min. The protocol:
After 24 h of incubation at 25°C, the parasite concentration was adjusted to 5x10^6 cells/mL and stained with 500 nM MitoTracker (Invitrogen, Eugene, OR, USA) in the dark for 40 min at 37°C. After washing twice with PBS, samples were transferred in triplicate to a black 96-well plate, and fluorescence measured in a spectrofluorometer (FLx800, BioTek Instruments, Inc., Winooski, VT, USA) at 540/600 nm excitation/emission. […] Louis, MO, USA) for 10 min were used to obtain maximal mitochondrial depolarization (positive control).

Data set [5] deals with L. amazonensis promastigotes. Nature of the data set: Reactive oxygen species (ROS) detection (H2DCFDA). Format: cell-based, Leishmania amazonensis. The protocol:
Fluorescence intensity was detected using a fluorimetric microplate reader (FLx800, BioTek Instruments, Inc., Winooski, VT, USA), at 485/528 nm excitation/emission. Promastigotes incubated with miltefosine (44.2 μM) were used as a positive control.

Data set [6] has as its system L. amazonensis promastigotes. Description: Cell membrane integrity (propidium iodide). The conditions noted are these: 24 h; 2 at 33.8 μM, 3 at 11.4 μM. The class given is cell-based, Leishmania amazonensis. The protocol: Plates were incubated with propidium iodide (PI) (1.0 μg/mL—Sigma-Aldrich, USA, St. Louis, MO, USA) for 15 min in the dark at RT. Fluorescence was measured using a spectrofluorometer (FLx800, BioTek Instruments, Inc., Winooski, VT, USA) with 540/600 nm excitation/emission. Parasites heated at 65 °C were used as the positive control.

Data set [7] relates to L. amazonensis promastigotes. Description: Neutral lipid quantification (Nile Red). The conditions noted are these: 24 h; 2 at 33.8 μM, 3 at 11.4 μM. Format: cell-based, Leishmania amazonensis. The protocol:
After 24 h of exposure, the parasites (1x10^7 cells/well) were stained with 10 μg/mL Nile Red (Sigma-Aldrich, St. Louis, MO, USA) in the dark for 20 min at 25°C. Fluorescence intensity was analysed in a spectrofluorometer (BioTek Instruments, Inc., Winooski, VT, USA) using 485/528 nm excitation/emission.

Data set [8] relates to L. amazonensis promastigotes. Nature of the data set: Antiproliferation assay: L. amazonensis promastigotes (72 h), MTT. The class given is cell-based, Leishmania amazonensis (IFLA/BR/1967/PH8). Conditions: 72 h exposure; for IC50: Leishmania amazonensis. The protocol:
as §1, §2

The test system of data set [9] is L. infantum amastigotes. Nature of the data set: L. infantum amastigotes assay (Giemsa, infection index). Format: cell-based, Leishmania infantum. Conditions: Leishmania infantum; intracellular, 72 h. The protocol: Peritoneal macrophages (6 x 10^5 cells) were plated on round glass coverslips within 24-well plates in RPMI 1640 medium supplemented with FBS and 20 mM L-glutamine, pH 7.2, and incubated for 24 h at 37°C in 5% CO2. Stationary-phase promastigotes (6 x 10^6 cells, at a ratio of 10 parasites per macrophage) were then added to the wells, and cultures incubated for 24 h at 37°C in 5% CO2. Non-internalized parasites were removed by extensive PBS solution washing and infected macrophages subsequently treated with nontoxic concentrations of: compound 3 (6.25 μg/mL to 0.18 μg/mL) or miltefosine (10.0 μg/mL to 0.6 μg/mL, positive control) for 72 h at 37°C in 5% CO2. After compound exposure, cells were fixed with absolute ethanol and stained with Giemsa. A total of 200 macrophages were counted under a light microscope. The infection index was determined by the […] percentage of infected macrophages multiplied by the mean number of amastigotes per macrophage out of 200 macrophages.

Data set [10] has as its system L. amazonensis promastigotes. Description: Antiproliferation assay: L. amazonensis promastigotes (24 h), resazurin. Format: cell-based, Leishmania amazonensis (IFLA/BR/1967/PH8). The conditions noted are these: Leishmania amazonensis, after 24 h, read-out: IC50 (CI95). The protocol: as §1
Extracts and fractions were tested against L. amazonensis (IFLA/BR/1967/PH8) promastigote cells in a 96-well plate at a concentration of 10^6 cells/well. Each sample was solubilized in DMSO (<1%) since it was not soluble directly in the medium. Extracts were tested at 100 μg/mL and 50 μg/mL. […] Plates were read at 570 nm and 595 nm in a microplate reader (BiochromAsys UVM 340) after cell lysis with sodium dodecyl sulfate (SDS). Viability was calculated based on the equations described by Kulshrestha.
(Alamar Blue is a resazurin reagent that responds to reducing activity.)

For data set [11], the system named is L. amazonensis promastigotes. Conditions: cited from earlier work.
Data set [12] relates to L. amazonensis axenic amastigotes. Also on record: method as in PMID 18849135. Conditions: cited from earlier work.

Converted amounts (≈) assume the structure as drawn. “And” between values parts separate entries of the source, which are not always exact repeats. Equal entries are not always repeated. Where two headings read alike, the source gives them in different places. Bounds are passed on as bounds.

`COc1ccc2c(c1)OC1c3ccc4c(c3OCC21)C=CC(C)(C)O4` (centres unmarked) [Compound 1, hemileiocarpin]: the IC50 was 10.6 µg/mL and 31.6 µM in data set [1]; 20.8 µg/mL and 61.9 µM in data set [2]. Also, the CC50 at 72 h in [3] (murine peritoneal macrophages) is > 100 µg/mL and > 297 µM.

For the compound `N#CC(C#N)=NNc1ccc(OC(F)(F)F)cc1` [FCCP, carbonyl cyanide 4-(trifluoro-methoxyl)phenylhydrazone, reference compound], the “reduction in mitochondrial membrane potential (ΔΨm)” value in data set [4] is 51.6%.

Turning to `CC1(C)C=Cc2c(ccc3c2OCC2c4cc5c(cc4OC32)OCO5)O1` (centres unmarked) [Compound 2, leiocarpin], in data set [5] (24 h, 2 at 33.8 μM, 3 at 11.4 μM), the ROS level entry is “no alteration in the ROS level”. Also, in [6], the “plasma membrane integrity (PI-positive parasites)” value is recorded as “significant increase in the percentage of PI-positive parasites”. Further, in [1] (CC50 macrophages / IC50 L. amazonensis amastigotes), the “SI (Selectivity Index)” value was 5.7. Also, the IC50 was 7.1 µg/mL and 20.4 µM in data set [1]; 15.5 µg/mL and 44.3 µM in data set [2]; 11.4 µg/mL and 33.8 µM in [8]. The “increase in neutral lipid levels in relation to the untreated control” value in data set [7] is 86.9%. Also, the “reduction in mitochondrial membrane potential (ΔΨm)” value in data set [4] was determined as 37.6%. In addition, the CC50 at 72 h in data set [3] (murine peritoneal macrophages) is 39 µg/mL and 116 µM.

As for `CCCCCCCCCCCCCCCCOP(=O)([O-])OCC[N+](C)(C)C` [Miltefosine, reference compound], the “increase in ROS production” value in data set [5] (miltefosine 44.2 μM, positive control) stood at 162.3%. Moreover, the “SI (Selectivity Index)” value in data set [1] came to 10.4. Further, the IC50 was 5.2 µg/mL and 12.7 µM in data set [1]; 2.6 µg/mL and 6.5 µM in data set [2]; 3.7 µM in data set [9]; 9 µg/mL and 22.1 µM in data set [8].

For the compound `CCCCCCCCCCCCCC1=C(O)C(=O)C=C(O)C1=O` [Compound 4, rapanone], in [1], the “activity against L. amazonensis amastigotes (in words)” value was “inactive”; the IC50 is > 3.2 µg/mL and > 10.6 µM. Besides, in [2], the “Promastigotes IC50 L. infantum” value was found to be 7.17 ± 0.3 µg/mL; the IC50 was 7.2 µg/mL and 24.5 µM. Further, in data set [8], the “activity against L. amazonensis promastigotes (in words)” value was “inactivity”; the IC50 is 50.4 µg/mL and 169 µM. Further, the CC50 at 72 h in [3] (murine peritoneal macrophages) is 2.9 µg/mL and 9.8 µM.

Regarding `CCCCCCCCCCCCCCCC1=C(O)C(=O)C=C(O)C1=O` [Compound 6, suberonone], in [1], the “activity against L. amazonensis amastigotes (in words)” value was “inactive”; the IC50 is > 3.2 µg/mL and > 8.9 µM. Besides, in [2], the “activity against L. infantum promastigotes (in words)” value is “not considered active”; the IC50 was 37.2 µg/mL and 106 µM. For the same compound, in data set [8], the “activity against L. amazonensis promastigotes (in words)” value is on record as “not considered active”; the IC50 is 51.9 µg/mL and 149 µM. In addition, in data set [3] (murine peritoneal macrophages), the CC50 at 72 h was 4.2 µg/mL and 11.7 µM.

For `C[C@@H]1[C@H](O)[C@@H](C)/C=C/C=C/C=C/C=C/C=C/C=C/C=C/[C@H](O[C@@H]2O[C@H](C)[C@@H](O)[C@H](N)[C@@H]2O)C[C@@H]2O[C@](O)(C[C@@H](O)C[C@@H](O)[C@H](O)CC[C@@H](O)C[C@@H](O)CC(=O)O[C@H]1C)C[C@H](O)[C@H]2C(=O)O` [Amphotericin B, reference compound], the IC50 in [10] is less than 7.8 µg/mL.

Regarding `CCCCCCCCCCCC1=C(O)C(=O)C=C(O)C1=O` [Compound 5, embelin], in [1], the “activity against L. amazonensis amastigotes (in words)” value is “inactive”. Also, the IC50 in data set [1] is > 3.2 µg/mL and > 9.7 µM; in data set [2] it was 10.7 µg/mL and 33.2 µM; in data set [8], 12.5 µg/mL and 38.9 µM. For the same compound, the CC50 at 72 h in data set [3] (read-out: Cytotoxicity CC50 Murine macrophages) was 0.9 µg/mL and 2.6 µM.

Consider `CCC(C)C(=O)c1c(O)c(CC=C(C)C)c(O)c2c(-c3ccccc3)cc(=O)oc12` (centres unmarked) [mammea A/BB], for which, in data set [11], the IC50 promastigotes is 3 µg/mL (≈ 7.38 µM). Further, the IC50 axenic amastigotes in data set [12] is 0.88 µg/mL (≈ 2.16 µM).

As usually defined, the IC50 is the concentration that gives 50% inhibition. A word on the CC50: it is the concentration that lowers cell viability or growth by half.
